This is an account of results in patent US11339417B2, “Amplifier system and controls for dielectrophoretic tracking in microfluidic devices” (University of Virginia Patent Foundation, priority 2014, dated 2022).

In assay [1] the test system is Cryptosporidium parvum oocysts. As to the kind of experiment: Dielectrophoretic characterization of oocysts (DEP tracking, single shell model fit). The class given is cell-based. The conditions noted are these: 100 mg L^−1 for 4 hours.
Assay [2] concerns Cryptosporidium parvum oocysts. In words: Excystation of oocysts after disinfection treatment. The conditions noted are these: oocysts treated with 100 mg L^−1 for 4 hours; untreated 89.5%. The class given is cell-based.
Description: For treatment with silver nanoparticles (AgNPs), the animal infectivity experiment was done after the oocysts were treated with 100 mg L^−1 proteinate capped AgNPs (Argenol) (˜15 nm) for 4 hours.
After each disinfection treatment, the oocysts were treated with 10% bleach (Bleach-Rite) for 30 minutes in a micro-centrifuge tube at room temperature, followed by vortexing every 10 minutes. The suspension was incubated in a microfluidic chamber with a glass cover-slip for an hour, for real-time recording of the excystation; i.e. release of sporozoites from the oocyst. The excystation was examined by inverted microscopy using 63× oil immersion phase and DIC objectives. […] The percentage of the excystation was calculated as: (# of excysted oocytsl # of total oocyst)×100.^29 For mouse model infectivity studies,^12 all mice were malnourished for a period of 13 days before experiments. For every six mice fed with the oocysts for each treatment, three other mice were fed with untreated oocysts as positive control.
Assay [3] has as its system C. difficile VPI10463 (high-toxigenic, HTCD). In words: Dielectrophoretic (DEP) characterization of C. difficile HTCD strain after vancomycin treatment. The class given is cell-based, Clostridium difficile. The method, then:
Bacteria strains preparation. II three C. difficile strains were purchased from ATCC. The bacteria were cultured in brain heart infusion (BHI) broth (BD BBL Brain Heart Infusion) at 37° C. overnight under anaerobic condition before further antibiotic treatment or dielectrophoretic experiments. 250 μL of the overnight cultured bacteria suspension and 750 μL of the BHI with vancomycin (Novaplus) or without vancomycin for the control groups were mixed in Eppendorf tubes and incubated at 37° C. for 4 hours or 24 hours. The vancomycin concentration for VPI10463 (high-toxigenic, HTCD) was 2 mg/mL and 1 mg/mL for ATCC630 (low-toxigenic, LTCD) and VPI11186 (non-toxigenic, NTCD). Prior to the dielectrophoresis experiments, the BHI broth was replaced with 8.8% sucrose water and re-adjusted with BHI broth to optimize the medium conductivity 105±5% mS/m for enabling DEP-based distinction of C. difficile strains from mixed samples. All three strains were confirmed to be viable within this altered BHI media over the timeframe of the DEP experiments, as per the colony forming unit (CFU) assay.
Dielectrophoretic characterization of C. difficile. The experimental setup has been described in our prior work. Briefly, Standard PDMS (Poly-di-methyl-siloxane) micro-molding methods were used to micro-fabricate channels with sharp lateral constrictions (1000 μm to 15 μm). […] The trajectory of the unlabeled C. difficile of each strain type was observed under this field, as high frame per second movies to quantify the DEP velocity. For experiments within mixed C. difficile samples, the trapped microbials were released and analyzed with the immunoassay to confirm toxigenicity. […]
(§1) FIGS. 2a and 2b show the electrode-less device with external electrodes (1 cm apart) to initiate localized microbial trapping in the constriction region. […] In this manner, as per prior work^33, the translational velocity under the DEP trapping force is measured for ˜20 individual microbial cells to quantify the DEP spectra. […]

For assay [4], the system named is C. difficile VPI11186 (non-toxigenic, NTCD). In words: Dielectrophoretic (DEP) characterization of C. difficile NTCD strain after vancomycin treatment. Format: cell-based, Clostridium difficile. As to the method:
(§2) Bacteria strains preparation. II three C. difficile strains were purchased from ATCC. The bacteria were cultured in brain heart infusion (BHI) broth (BD BBL Brain Heart Infusion) at 37° C. overnight under anaerobic condition before further antibiotic treatment or dielectrophoretic experiments. 250 μL of the overnight cultured bacteria suspension and 750 μL of the BHI with vancomycin (Novaplus) or without vancomycin for the control groups were mixed in Eppendorf tubes and incubated at 37° C. for 4 hours or 24 hours. The vancomycin concentration for VPI10463 (high-toxigenic, HTCD) was 2 mg/mL and 1 mg/mL for ATCC630 (low-toxigenic, LTCD) and VPI11186 (non-toxigenic, NTCD). […]
(§3) Dielectrophoretic characterization of C. difficile. […] The trajectory of the unlabeled C. difficile of each strain type was observed under this field, as high frame per second movies to quantify the DEP velocity. For experiments within mixed C. difficile samples, the trapped microbials were released and analyzed with the immunoassay to confirm toxigenicity. […]
as §1

The test system of assay [5] is C. difficile VPI10463 (high-toxigenic, HTCD). In words: Toxicity enzyme-linked immunosorbent assay, total toxin (A/B) production. Format: cell-based, Clostridium difficile. As to the method:
Toxicity enzyme-linked immunosorbent assay. Total toxin (A/B) production was measured using the C. difficile TOX A/B II kit (Tech-Lab) according to the manufacturer's instructions. Culture supernatants were collected at 0, 4 and 24 hours by centrifugation at 3500 rcf for 5 min and stored at −20° C. The supernatants of the VPI110463 strain were diluted 1 to 20, while the supernatants of the VPI11186 strain were undiluted. Each specimen was run in duplicate. Total toxin levels were determined by measuring A450 under a 96 well plate spectrophotometry. The A450 number at each time point (4 hours and 24 hours) of each strain at each condition was normalized to its 0 hour time point.
(§4) In order to evaluate the sensitivity of DEP methods versus the current state of the art, we benchmark the DEP velocity data for HTCD and NTCD C. difficile strains after various levels of antibiotic treatment versus conventional diagnostic measures for the loss of C. difficile functionality, such as toxin production and growth rate values. To enable the comparison of DEP data across the range of C. difficile strains, we choose a frequency of 1 MHz, since all strains show some level of pDEP before and after antibiotic treatment. For measurements of alteration in toxin production level and growth rate of C. difficile strains after antibiotic treatment, it is necessary to culture the microbial cells with the antibiotic over a period of 4-24 hours, to enable sufficient sensitivity for the measurements. […] Furthermore, the results after antibiotic treatment for a particular period of time are compared against their respective values on untreated microbials for the same period of culture time (this control value for each treatment time is indicated as “Un-0”, “Un-4” or “Un-24” in FIGS. 15c-15e).

The subject of assay [6] is C. difficile ATCC630 (low-toxigenic, LTCD). As to the kind of experiment: Dielectrophoretic (DEP) characterization of C. difficile LTCD strain after vancomycin treatment. The conditions noted are these: vancomycin 1 mg/mL, untreated 500 kHz. The class given is cell-based, Clostridium difficile. The method, then: as §2, §3, §1
Assay [7] relates to C. difficile VPI10463 (high-toxigenic, HTCD). In words: Growth measurement (OD600), HTCD strain. Format: cell-based, Clostridium difficile. The method, then: (§5) Growth measurement. 250 μL of the overnight cultured bacteria suspension and 750 μL of the BHI broth, with or without vancomycin were mixed in Eppendorf tubes. The optical density at a wavelength of 600 nm (OD600) of the mixed bacteria suspensions, measured by Spectrophotometry (Eppendorf Biophotometer) before incubation, was indexed as the “0 hour” time point. The OD600 number at later time points (4 and 24 hours) for respective strain at each condition was normalized to its 0 hour point.
as §4

Assay [8] deals with C. difficile VPI11186 (non-toxigenic, NTCD). In words: Growth measurement (OD600), NTCD strain. Format: cell-based, Clostridium difficile. As to the method:
as §5, §4

[9] abbreviates: 4 hours of vancomycin treatment.
Setting [10] is: 24 hours of vancomycin treatment.

Values joined by “and” are separate entries in the source; they are usually repeats but may differ in a detail not shown here. Identical values can stand only once.

Regarding `O=[N+]([O-])[O-].[Ag+]` [AgNO3, silver nitrate], the “DEP response of treated versus untreated oocysts at 100 kHz and at 400 kHz” value in assay [1] is “not significantly altered”. The Excystation rate in assay [2] is 71.4% and 70%.

For the compound `CN[C@H](CC(C)C)C(=O)N[C@H]1C(=O)N[C@@H](CC(N)=O)C(=O)N[C@H]2C(=O)N[C@H]3C(=O)N[C@H](C(=O)N[C@H](C(=O)O)c4cc(O)cc(O)c4-c4cc3ccc4O)[C@H](O)c3ccc(c(Cl)c3)Oc3cc2cc(c3O[C@@H]2O[C@H](CO)[C@@H](O)[C@H](O)[C@H]2O[C@H]2C[C@](C)(N)[C@H](O)[C@H](C)O2)Oc2ccc(cc2Cl)[C@H]1O` [vancomycin], the “DEP crossover frequency after vancomycin treatment” value was 600 kHz and 900 kHz in assay [3] (HTCD / hypervirulent TCD strain, vancomycin 2 mg/mL, untreated 300 kHz or 400 kHz); 600 kHz in assay [4] (NTCD strain, vancomycin 1 mg/mL, untreated 900 kHz); 300 kHz in assay [6]. Also, the “DEP velocity after vancomycin treatment” value in assay [3] (HTCD, 1 MHz, 4 hours of vancomycin treatment, untreated 30.7 μm/s) is recorded as 7.6 μm/s; in assay [4] (NTCD, 1 MHz, 4 hours of vancomycin treatment, untreated 16 μm/s), around 7 μm/s. Moreover, in assay [3] (HTCD, 400 kHz, untreated HTCD shows pDEP), the “DEP behavior at 400 kHz of vancomycin treated cells” value was “some residual level of nDEP and nDEP”. Besides, in assay [5] (setting [9]), the “Difference in toxin production level versus the control (Un-4)” value stood at 0.55. The “Relative toxin production (normalized to 0 hour)” value in assay [5] (setting [9]) is 1.05 times; in assay [5] (setting [10]), “small reduction”. Also, the “Difference in toxin production level versus the control (Un-24)” value in assay [5] (setting [10]) is on record as 7.5. The Growth rate reduction entry in assay [7] (setting [9]) is given as “minimal growth rate reduction”. In addition, the “Relative growth rate (OD600 normalized to 0 hour)” value in assay [7] (setting [9]) worked out at 1.51 times; in assay [7] (setting [10]), 1.61 times; in assay [8] (setting [9]), 1.1 times; in assay [8] (setting [10]), 1.05 times. Moreover, the “Difference in growth rate versus the control (Un-24)” value in assay [7] (setting [10]) is listed as 2.2. The “Difference in growth rate versus the untreated sample (Un-4)” value in assay [8] (setting [9]) is on record as 0.74. In addition, the “Difference in growth rate versus the untreated sample (Un-24)” value in assay [8] (setting [10]) turned out to be 3.3.
